Assays:
Assay type in all cases: cell-based
[1] = tested on: cultured rabbit trigeminal nerve cells; experiment: Effect of Octreotide on axon extension of cultured rabbit trigeminal nerve cells (anti-neurofilament 200 immunostaining, image analysis); conditions: Octreotide 10 μM final concentration, 24 hr culture
From the text: Effect of Octreotide on Axon Extension of Cultured Rabbit Trigeminal Nerve Cells (In Vitro Test)
(§1) Japanese White Rabbits (2-3 days old) purchased from Fukusaki Rabbit Warren were used.
Octreotide (SMS 201-995, American Peptide Company, Inc.) was used.
The cell culture: Trigeminal nerve cells were isolated by reference to the report of Chan et al. (Kuan Y. Chan and Richard H. Haschke. Exp. Eye Res. 41: 687-699, 1985). To be specific, under ether anesthesia, after cardiac perfusion of rabbit with saline, the trigeminal ganglia was removed, and dispersed in nerve dispersion solution (SUMITOMO BAKELITE Co., Ltd.). The cells were counted and innoculated in an 8 well culture slide (BECTON DICKINSON) coated with polylysine. The cell number was about 3×10^3 cells per well, and the culture conditions were 5% CO2, 95% air, 37° C. […] Immunostaining: At 24 hr from culture, the cells were fixed with 4% paraformaldehyde at room temperature for 2 hr, and nerve cell, axon and dendrite were fluorescence stained with anti-neurofilament 200 antibody (NF, Anti-Neurofilament 200, Sigma) specifically recognizing a neurofilament constituting the nerve cell and neurite. The images of the stained cells were imported into a computer from the fluorescence microscope, and the effect of Octreotide on the neurite formation and axon extension was evaluated using an image analysis soft (MacSCOP, MITANI CO.). […]

[2] = tested on: cultured rabbit trigeminal nerve cells; experiment: Effect of somatostatin receptor agonist on axon extension of cultured rabbit trigeminal nerve cells (neurofilament absorbance at 492 nm, fluorescence microscopy); conditions: 48 hr culture; for absorbance indicating the neurofilament amount of the cells (492 nm): control group 0.798, n=3
From the text: Effect of Somatostatin Receptor Agonist on Axon Extension of Cultured Rabbit Trigeminal Nerve Cell (In Vitro Test)
Japanese White Rabbits (2-3 days old) purchased from KITAYAMA LABES Co., Ltd. were used.
As a somatostatin receptor agonist, which is a test substance, t-butyl 6-amino-2-(3-(1H-indol-3-yl)-2-((4-(2-oxo-2,3-dihydrobenzoimidazol-1-yl)piperidine-1-carbonyl)amino)propionylamino)hexanoate, which is an SSTR2 specific agonist (hereinafter to be referred to as compound 1), and 1-(3-(N-(5-bromopyridin-2-yl)-N-(3,4-dichlorobenzyl)amino)propyl)-3-(3-(1H-imidazol-4-yl)propyl)thiourea (hereinafter to be referred to as compound 2), which is an SSTR4 specific agonist, were used. The compound 1 was a compound of Example 4 and synthesized according to the method of Example 2 of JP-A-2001-519812 (WO98/44922). The compound 2 was synthesized according Example 15 of JP-A-2001-525793 (WO97/43278).
Rabbit trigeminal nerve cells were isolated by reference to the report of Chan et al. (Kuan Y. Chan and Richard H. Haschke. Exp. Eye Res. 41: 687-699, 1985). To be specific, under ether anesthesia, cardiac perfusion with saline was performed and trigeminal ganglia was removed. Using nerve dispersion solution (SUMITOMO BAKELITE Co., Ltd.), trigeminal ganglia was dispersed to prepare trigeminal nerve cells. For cell culture, Neurobasal medium (GIBCO) added with B27 Supplement (GIBCO; final concentration 2% v/v) and L-Glutamine (GIBCO; final concentration 1 mM) was used under the culture conditions of 5% CO2, 95% air, 100% humidity, 37° C., 48 hr. […]
After the completion of 48 hr culture, the cells innoculated on a 96 well plate were fixed with 4% paraformaldehyde and the neurofilament of the cell was labeled with anti-neurofilament 200 antibody (Sigma) specifically recognizing a neurofilament constituting nerve cell body and neurite and HRP conjugated goat anti-mouse IgG antibody (Wako Pure Chemical Industries, Ltd.). […] After the completion of coloring, the absorbance at 492 nm was measured and the measured value was taken as the amount of the stained neurofilament and used as an index for neuritogenesis (Taniwaki T., et al. Dev. Brain Res. (1995) 88, 109-166). The cells plated on an 8 well culture slide were fixed with 4% paraformaldehyde, a sample fixed with an anti-neurofilament 200 antibody (Sigma) was stained, and fluorescence labeled with Alexa Fluor 568 conjugated secondary antibody (Molecular probes). The fluorescence labeled cells were observed under a fluorescence microscope and the cell images were imported into a computer.

[3] = tested on: cultured rabbit trigeminal nerve cells; experiment: Nerve axon extension promoting action in cultured rabbit trigeminal nerve cells (phase contrast microscopy); conditions: NGF 1 μg/mL final concentration, 48 hr culture, compared to non-addition group
Experimental: Nerve Axon Extension Promoting Action in Cultured Rabbit Trigeminal Nerve Cells (In Vitro Experiment)
as §1
As a test substance, somatostatin (manufactured by CALBIOCHEM, Lot B33795) and NGF (NGF-7S, manufactured by Sigma) were used. The test substance was dissolved in phosphate buffer (PBS) to 100 μM somatostatin, 20 μg/mL NGF-7S. The prepared reagents were preserved at −80° C. and dissolved before use.
The trigeminal nerve cell was isolated according to the report of Chan et al. (Kuan Y. Chan and Richard H. Haschke. Exp. Eye Res. 41: 687-699, 1985). To be specific, under ether anesthesia, after cardiac perfusion of rabbit with saline, the trigeminal ganglia was removed, trigeminal ganglia was dispersed using a nerve dispersion solution (SUMITOMO BAKELITE Co., Ltd.), and the cells were plated in a 24-well plate (SUMITOMO BAKELITE Co., Ltd.) coated with polylysine/laminin. The number of cells was about 3000 cells per well and the culture conditions were 5% CO2, 95% air at 37° C. […]
The effect on the formation of neurite and the axon extension from trigeminal nerve cell by somatostatin and NGF were morphologically evaluated by the observation using a phase contrast microscope.

C[C@@H](O)[C@@H]1NC(=O)[C@H](CCCCN)NC(=O)[C@@H](Cc2c[nH]c3ccccc23)NC(=O)[C@H](Cc2ccccc2)NC(=O)[C@@H](NC(=O)[C@H](N)Cc2ccccc2)CSSC[C@@H](C(=O)N[C@H](CO)[C@@H](C)O)NC1=O [Octreotide]
neuritogenic cells compared to the control cell group (fluorescence microscopic images) [1]: neuritogenic cells increased | proportion (%) of neuritogenic cell to the total cell number ([1]; control group about 21%, n=3, p<0.05): about 43%

CC(C)(C)OC(=O)C(CCCCN)NC(=O)C(Cc1c[nH]c2ccccc12)NC(=O)N1CCC(n2c(=O)[nH]c3ccccc32)CC1 (stereo not shown) [compound 1, t-butyl 6-amino-2-(3-(1H-indol-3-yl)-2-((4-(2-oxo-2,3-dihydrobenzoimidazol-1-yl)piperidine-1-carbonyl)amino)propionylamino)hexanoate]
neuritogenic cells compared with the control group (fluorescence microscopic images) ([2]; final concentration 1 μM): increase in the neuritogenic cells | absorbance indicating the neurofilament amount of the cells (492 nm) ([2]; final concentration 1 μM): 0.876

S=C(NCCCc1c[nH]cn1)NCCCN(Cc1ccc(Cl)c(Cl)c1)c1ccc(Br)cn1 [compound 2, 1-(3-(N-(5-bromopyridin-2-yl)-N-(3,4-dichlorobenzyl)amino)propyl)-3-(3-(1H-imidazol-4-yl)propyl)thiourea]
neuritogenic cells compared with the control group (fluorescence microscopic images) ([2]; final concentration 0.1 μM): increase in the neuritogenic cells | absorbance indicating the neurofilament amount of the cells (492 nm) ([2]; final concentration 0.1 μM): 0.850

B1: NGF: nerve growth factor (NGF-7S, manufactured by Sigma) (protein, UniProt P01139 122-241, looked up)
Beta-nerve growth factor: SSTHPVFHMGEFSVCDSVSVWVGDKTTATDIKGKEVTVLAEVNINNSVFRQYFFETKCRASNPVESGCRGIDSKHWNSYCTTTHTFVKALTTDEKQAAWRFIRIDTACVCVLSRKATRRG
modifications: 7S complex
formation of neurite and axon extension from trigeminal nerve cell, morphological evaluation [3]: clear nerve cell axon extension-promoting action was observed

Reference: US20060234922A1, “Remedy for corneal failure” (priority 2002, published 2006)
